Measured values published in patent US9255090B2, “Heterocyclyl derivatives and their use as prostaglandin D2 receptor modulators” (Actelion Pharmaceuticals Ltd., priority 2012, dated 2016).

target: hCRTH2 receptor (Homo sapiens (Human), UniProt Q9Y5Y4); test: hCRTH2 receptor membranes radioligand (3H-PGD2) displacement assay; type: binding; settings: 3H-PGD2 radioligand displacement, HEK293-hCRTH2 membranes
Procedure, shortened: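 HEK293-hCRTH2 membranes, 20 μg/well; 3H-PGD2 added at 2.5 nM; binding buffer 50 mM Tris, 10 mM MnCl2, 1 mM EDTA, pH 7.0; 90 min RT; GF/C filtration, scintillation count. Nonspecific binding: PGD2 at […].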

Chain of hCRTH2 receptor (Q9Y5Y4 whole entry): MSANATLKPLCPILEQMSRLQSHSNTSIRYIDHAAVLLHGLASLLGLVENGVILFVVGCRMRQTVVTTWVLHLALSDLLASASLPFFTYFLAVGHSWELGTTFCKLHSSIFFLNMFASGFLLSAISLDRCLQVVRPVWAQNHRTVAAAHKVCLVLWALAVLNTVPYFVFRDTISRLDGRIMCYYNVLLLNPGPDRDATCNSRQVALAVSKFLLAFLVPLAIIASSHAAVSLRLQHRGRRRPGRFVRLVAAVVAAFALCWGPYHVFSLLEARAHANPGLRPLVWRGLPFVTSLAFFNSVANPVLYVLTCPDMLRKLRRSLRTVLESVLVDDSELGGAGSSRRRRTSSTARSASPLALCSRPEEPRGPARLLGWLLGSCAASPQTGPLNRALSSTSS

SMILES	IC50
COc1ccc(CC(=O)O)cc1-c1ccc(Cl)c2c1CN(C(=O)CCCc1ccccc1F)CC2 [Example 74, (3-{5-Chloro-2-[4-(2-fluoro-phenyl)-butyryl]-1,2,3,4-tetrahydro-isoquinolin-8-yl}-4-methoxy-phenyl)-acetic acid]	10.5 nM
COc1ccc(CC(=O)O)cc1-c1ccc(Cl)c2c1CN(C(=O)CCc1cn(C)c3ccccc13)CC2 [Example 75, (3-{5-Chloro-2-[3-(1-methyl-1H-indol-3-yl)-propionyl]-1,2,3,4-tetrahydro-isoquinolin-8-yl}-4-methoxy-phenyl)-acetic acid]	38.4 nM
COc1ccc(CC(=O)O)cc1-c1ccc(F)c2c1CN(C(=O)[C@H]1C[C@@H]1c1ccccc1)CC2 [Example 81, {3-[5-Fluoro-2-((1S,2S)-2-phenyl-cyclopropanecarbonyl)-1,2,3,4-tetrahydro-isoquinolin-8-yl]-4-methoxy-phenyl}-acetic acid]	33.1 nM
COc1ccc(CC(=O)O)cc1-c1ccc(F)c2c1CN(C(=O)/C=C/c1sc(C)nc1C)CC2 [Example 87, (3-{2-[(E)-3-(2,4-Dimethyl-thiazol-5-yl)-acryloyl]-5-fluoro-1,2,3,4-tetrahydro-isoquinolin-8-yl}-4-methoxy-phenyl)-acetic acid]	93.8 nM
COc1ccc(CC(=O)O)cc1-c1ccc(F)c2c1CN(C(=O)/C=C/c1cccnc1)CC2 [Example 89, {3-[5-Fluoro-2-((E)-3-pyridin-3-yl-acryloyl)-1,2,3,4-tetrahydro-isoquinolin-8-yl]-4-methoxy-phenyl}-acetic acid]	57.2 nM
COc1ccc(CC(=O)O)cc1-c1ccc(F)c2c1CN(C(=O)/C=C/c1cc(C)nn1C)CC2 [Example 90, (3-{2-[(E)-3-(2,5-Dimethyl-2H-pyrazol-3-yl)-acryloyl]-5-fluoro-1,2,3,4-tetrahydro-isoquinolin-8-yl}-4-methoxy-phenyl)-acetic acid]	49.1 nM
COc1ccc(CC(=O)O)cc1-c1ccc(F)c2c1CN(C(=O)CCc1cccc(C)n1)CC2 [Example 92, (3-{5-Fluoro-2-[3-(6-methyl-pyridin-2-yl)-propionyl]-1,2,3,4-tetrahydro-isoquinolin-8-yl}-4-methoxy-phenyl)-acetic acid]	15.7 nM
COc1ccc(CC(=O)O)cc1-c1ccc(F)c2c1CN(C(=O)CCc1ncccn1)CC2 [Example 93, {3-[5-Fluoro-2-(3-pyrimidin-2-yl-propionyl)-1,2,3,4-tetrahydro-isoquinolin-8-yl]-4-methoxy-phenyl}-acetic acid]	690 nM
COc1ccc(CC(=O)O)cc1-c1ccc(F)c2c1CN(C(=O)COc1cccnc1)CC2 [Example 94, (3-{5-Fluoro-2-[2-(pyridin-3-yloxy)-acetyl]-1,2,3,4-tetrahydro-isoquinolin-8-yl}-4-methoxy-phenyl)-acetic acid]	418 nM
COc1ccc(CC(=O)O)cc1-c1ccc(F)c2c1CCN(C(=O)CCc1ccccc1)C2 [Example 101, {3-[8-Fluoro-2-(3-phenyl-propionyl)-1,2,3,4-tetrahydro-isoquinolin-5-yl]-4-methoxy-phenyl}-acetic acid]	64.7 nM

Now from value to molecule:

IC50	SMILES
43.1 nM	COc1ccc(CC(=O)O)cc1-c1ccc(Cl)c2c1CN(C(=O)CCc1ccccc1)CC2 [Example 76, {3-[5-Chloro-2-(3-phenyl-propionyl)-1,2,3,4-tetrahydro-isoquinolin-8-yl]-4-methoxy-phenyl}-acetic acid]
24 nM	COc1ccc(CC(=O)O)cc1-c1ccc(Cl)c2c1CN(C(=O)CCN1CCCc3ccccc31)CC2 [Example 77, {3-[5-Chloro-2-(3-3,4-dihydro-2H-quinolin-1-yl-propionyl)-1,2,3,4-tetrahydro-isoquinolin-8-yl]-4-methoxy-phenyl}-acetic acid]
61.5 nM	COc1ccc(CC(=O)O)cc1-c1ccc(Cl)c2c1CN(C(=O)CCN1CCc3ccccc31)CC2 [Example 78, {3-[5-Chloro-2-(3-2,3-dihydro-indol-1-yl-propionyl)-1,2,3,4-tetrahydro-isoquinolin-8-yl]-4-methoxy-phenyl}-acetic acid]
37.8 nM	COc1ccc(CC(=O)O)cc1-c1ccc(Cl)c2c1CN(C(=O)CCc1c(C)[nH]c3ccccc13)CC2 [Example 79, (3-{5-Chloro-2-[3-(2-methyl-1H-indol-3-yl)-propionyl]-1,2,3,4-tetrahydro-isoquinolin-8-yl}-4-methoxy-phenyl)-acetic acid]
250 nM	COc1ccc(CC(=O)O)cc1-c1ccc(C(F)(F)F)c2c1CN(C(=O)C1CC1)CC2 [Example 82, [3-(2-Cyclopropanecarbonyl-5-trifluoromethyl-1,2,3,4-tetrahydro-isoquinolin-8-yl)-4-methoxy-phenyl]-acetic acid]
35.8 nM	COc1ccc(CC(=O)O)cc1-c1ccc(F)c2c1CN(C(=O)/C=C/c1ccccc1)CC2 [Example 85, (3-{5-Fluoro-2-[(E)-(3-phenyl-acryloyl)]-1,2,3,4-tetrahydro-isoquinolin-8-yl}-4-methoxy-phenyl)-acetic acid]
70.5 nM	COc1ccc(/C=C/C(=O)N2CCc3c(F)ccc(-c4cc(CC(=O)O)ccc4OC)c3C2)cn1 [Example 86, (3-{5-Fluoro-2-[(E)-3-(6-methoxy-pyridin-3-yl)-acryloyl]-1,2,3,4-tetrahydro-isoquinolin-8-yl}-4-methoxy-phenyl)-acetic acid]
9.14 nM	COc1ccc(CC(=O)O)cc1-c1ccc(F)c2c1CN(C(=O)/C=C/c1nc3ccccc3s1)CC2 [Example 88, {3-[2-((E)-3-Benzothiazol-2-yl-acryloyl)-5-fluoro-1,2,3,4-tetrahydro-isoquinolin-8-yl]-4-methoxy-phenyl}-acetic acid]
32.1 nM	COc1ccc(CC(=O)O)cc1-c1ccc(F)c2c1CN(C(=O)CCc1ccccn1)CC2 [Example 91, {3-[5-Fluoro-2-(3-pyridin-2-yl-propionyl)-1,2,3,4-tetrahydro-isoquinolin-8-yl]-4-methoxy-phenyl}-acetic acid]
414 nM	COc1ccc(CC(=O)O)cc1-c1ccc(F)c2c1CCN(C(=O)[C@@H]1C[C@H]1c1ccccc1)C2 [Example 99, {3-[8-Fluoro-2-((1R,2R)-2-phenyl-cyclopropanecarbonyl)-1,2,3,4-tetrahydro-isoquinolin-5-yl]-4-methoxy-phenyl}-acetic acid]
105 nM	COc1ccc(CC(=O)O)cc1-c1ccc(F)c2c1CCN(C(=O)CCCc1ccccc1)C2 [Example 100, {3-[8-Fluoro-2-(4-phenyl-butyryl)-1,2,3,4-tetrahydro-isoquinolin-5-yl]-4-methoxy-phenyl}-acetic acid]
43 nM	COc1ccc(CC(=O)O)cc1-c1ccc(F)c2c1CCN(C(=O)CCOc1ccccc1)C2 [Example 102, {3-[8-Fluoro-2-(3-phenoxy-propionyl)-1,2,3,4-tetrahydro-isoquinolin-5-yl]-4-methoxy-phenyl}-acetic acid]
69.2 nM	COc1ccc(CC(=O)O)cc1-c1ccc(F)c2c1CCN(C(=O)COCc1ccccc1Cl)C2 [Example 103, (3-{2-[2-(2-Chloro-benzyloxy)-acetyl]-8-fluoro-1,2,3,4-tetrahydro-isoquinolin-5-yl}-4-methoxy-phenyl)-acetic acid]
21.3 nM	COc1ccc(CC(=O)O)cc1-c1ccc(F)c2c1CCN(C(=O)CCN1CCCc3ccccc31)C2 [Example 104, {3-[2-(3-3,4-Dihydro-2H-quinolin-1-yl-propionyl)-8-fluoro-1,2,3,4-tetrahydro-isoquinolin-5-yl]-4-methoxy-phenyl}-acetic acid]
